Measured values taken from patent publication US20120157433A1, “Heteroaryl Compounds as Kinase Inhibitors” (priority 2009, published 2012).

Biological target: Cdk9/cyclinT1 (Homo sapiens, UniProt P50750)
Experiment: Cdk9/cyclinT1 kinase assay (IMAP or Alpha Screen protocol)
Settings: not given

Chain of Cdk9/cyclinT1 (P50750 whole entry): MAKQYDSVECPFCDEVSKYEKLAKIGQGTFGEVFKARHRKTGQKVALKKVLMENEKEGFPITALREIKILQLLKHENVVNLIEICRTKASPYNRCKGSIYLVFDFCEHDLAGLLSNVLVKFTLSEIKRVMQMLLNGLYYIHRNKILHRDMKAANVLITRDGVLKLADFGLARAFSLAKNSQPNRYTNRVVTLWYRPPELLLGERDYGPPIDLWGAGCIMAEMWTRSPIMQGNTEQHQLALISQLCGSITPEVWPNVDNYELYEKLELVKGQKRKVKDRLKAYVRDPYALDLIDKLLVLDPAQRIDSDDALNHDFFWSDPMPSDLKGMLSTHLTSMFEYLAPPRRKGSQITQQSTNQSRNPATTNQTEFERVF
Chain of Cdk9/cyclinT1 (O60563 whole entry partner): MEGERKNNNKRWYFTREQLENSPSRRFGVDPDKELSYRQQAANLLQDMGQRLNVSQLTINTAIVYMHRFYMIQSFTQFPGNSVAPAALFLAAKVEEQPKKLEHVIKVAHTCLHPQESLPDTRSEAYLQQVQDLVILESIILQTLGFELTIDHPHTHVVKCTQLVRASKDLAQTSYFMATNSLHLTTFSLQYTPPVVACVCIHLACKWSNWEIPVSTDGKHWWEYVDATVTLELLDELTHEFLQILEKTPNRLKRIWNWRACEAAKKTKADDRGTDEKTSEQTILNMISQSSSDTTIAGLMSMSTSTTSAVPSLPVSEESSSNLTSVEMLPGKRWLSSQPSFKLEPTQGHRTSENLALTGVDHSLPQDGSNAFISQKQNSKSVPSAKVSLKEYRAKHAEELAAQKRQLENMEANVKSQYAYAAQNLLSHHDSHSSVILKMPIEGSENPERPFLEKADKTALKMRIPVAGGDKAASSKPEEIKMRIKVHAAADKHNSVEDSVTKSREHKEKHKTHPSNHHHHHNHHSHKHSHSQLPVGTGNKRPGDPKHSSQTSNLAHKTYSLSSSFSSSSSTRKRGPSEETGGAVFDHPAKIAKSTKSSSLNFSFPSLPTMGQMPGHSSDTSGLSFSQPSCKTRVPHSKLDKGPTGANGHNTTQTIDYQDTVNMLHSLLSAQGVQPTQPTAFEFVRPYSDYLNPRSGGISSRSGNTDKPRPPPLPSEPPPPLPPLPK

Row | Compound | IC50 [nM]
1 | O=C(Nc1cc(-c2ccccc2)c(Cl)cn1)[C@@H]1CCCNC1 [Example 1, (R)—N-(5-chloro-4-phenylpyridin-2-yl)piperidine-3-carboxamide] | 20
2 | O=C(Nc1cc(-c2cccc(F)c2)c(Cl)cn1)[C@@H]1CCCNC1 [Example 2, (R)-Piperidine-3-carboxylic acid [5-chloro-4-(3-fluoro-phenyl)-pyridin-2-yl]-amide] | 10
3 | COc1ccccc1-c1cc(NC(=O)[C@@H]2CCCNC2)ncc1Cl [Example 3, (R)-Piperidine-3-carboxylic acid [5-chloro-4-(2-methoxy-phenyl)-pyridin-2-yl]-amide] | < 8
4 | COc1ccc(F)cc1-c1cc(NC(=O)[C@@H]2CCCNC2)ncc1Cl [Example 4, (R)—N-(5-Chloro-4-(5-fluoro-2-methoxyphenyl)pyridin-2-yl)piperidine-3-carboxamide] | < 8
5 | CC(C)Oc1ccc(F)cc1-c1cc(NC(=O)[C@@H]2CCCNC2)ncc1Cl [Example 5, (R)-Piperidine-3-carboxylic acid [5-chloro-4-(5-fluoro-2-isopropoxy-phenyl)-pyridin-2-yl]-amide] | 2
6 | O=C(Nc1cc(-c2cccc(OCc3cccc(F)c3)c2)c(Cl)cn1)[C@@H]1CCCNC1 [Example 6, (R)-Piperidine-3-carboxylic acid {5-chloro-4-[3-(3-fluoro-benzyloxy)-phenyl]-pyridin-2-yl}-amide] | < 8
7 | O=C(Nc1cc(-c2cccc(NCC3CCOCC3)c2)c(Cl)cn1)[C@@H]1CCCNC1 [Example 7, (R)—N-(5-chloro-4-(3-(((tetrahydro-2H-pyran-4-yl)methyl)amino)phenyl)pyridin-2-yl)piperidine-3-carboxamide] | < 8
8 | O=C(Nc1cc(-c2cccc(NCC3CCOCC3)c2)c(Cl)cn1)[C@H]1CCCNC1 [Example 8, (S)-Piperidine-3-carboxylic acid (5-chloro-4-{3-[(tetrahydro-pyran-4-ylmethyl)-amino]-phenyl}-pyridin-2-yl)-amide] | 23
9 | O=C(Nc1cc(-c2cc(F)cc(NCC3CCOCC3)c2)c(Cl)cn1)[C@@H]1CCCNC1 [Example 9, (R)—N-(5-Chloro-4-(3-fluoro-5-(((tetrahydro-2H-pyran-4-yl)-methyl)amino)phenyl)-pyridin-2-yl)piperidine-3-carboxamide] | < 8
10 | CC(C)(C)OC(=O)N1CCC[C@@H](C(=O)Nc2cc(-c3cc(F)cc(NCC4CCOCC4)c3)c(Cl)cn2)C1 [Example 10, (R)-3-(5-Chloro-4-{3-fluoro-5-[(tetrahydro-pyran-4-ylmethyl)-amino]-phenyl}-pyridin-2-ylcarbamoyl)-piperidine-1-carboxylic acid tert-butyl ester] | 11
11 | O=C(Nc1cc(-c2cc(F)cc(NCC3CCOCC3)c2)c(Cl)cn1)[C@H]1CCCNC1 [Example 11, (S)-Piperidine-3-carboxylic acid (5-chloro-4-{3-fluoro-5-[(tetrahydro-pyran-4-ylmethyl)-amino]-phenyl}-pyridin-2-yl)-amide] | 11
12 | O=C(Nc1cc(-c2cc(NCC3CCOCC3)ccc2F)c(Cl)cn1)[C@@H]1CCCNC1 [Example 12, (R)-Piperidine-3-carboxylic acid (5-chloro-4-{2-fluoro-5-[(tetrahydro-pyran-4-ylmethyl)-amino]-phenyl}-pyridin-2-yl)-amide] | < 8
13 | O=C(Nc1cc(-c2ccc(Cl)c(NCC3CCOCC3)c2)c(Cl)cn1)[C@@H]1CCCNC1 [Example 13, (R)—N-(5-Chloro-4-(4-chloro-3-(((tetrahydro-2H-pyran-4-yl)methyl)amino)phenyl)-pyridin-2-yl)piperidine-3-carboxamide] | < 8
14 | O=C(Nc1cc(-c2cc(F)cc(NCC3CCOCC3)c2)c(Cl)cn1)C1CNCCO1 (stereo not shown) [Example 14, Morpholine-2-carboxylic acid (5-chloro-4-{3-fluoro-5-[(tetrahydro-pyran-4-ylmethyl)-amino]-phenyl}-pyridin-2-yl)-amide] | < 8
15 | O=C(Nc1cc(-c2cc(NCC3CCOCC3)ccc2F)c(Cl)cn1)[C@H]1CNCCO1 [Example 15, (R)-Morpholine-2-carboxylic acid (5-chloro-4-{2-fluoro-5-[(tetrahydro-pyran-4-ylmethyl)-amino]-phenyl}-pyridin-2-yl)-amide] | 16

Tested on: neointima formation
Experiment: not given
Settings: rats; cited from earlier work

Row | Compound | inhibition of neointima formation
16 | COc1ccc(CNc2nc(N(CCO)CCO)nc3c2ncn3C(C)C)cc1 [CVT-313] | greater than 80%
